Values of other authors in patent publication US20140308215A1, “ANTIPERSPIRANT COMPOSITIONS AND METHOD FOR REDUCING PERSPIRATION” (Conopco, Inc., d/b/a Unilever, priority 2011, published 2014).

Settings: Hildebrand Solubility Parameter of the liquid carrier

Row | HSP | Structure (SMILES)
1 | 16.36 (MPa)^0.5 | CCCCCCCCCCCCCCCC [Hexadecane]
2 | 16.40 (MPa)^0.5 | CCCCCCCCCCCCCC(=O)OC(C)C [Isopropyl myristate]
3 | 18.25 (MPa)^0.5 | CCCCCCCCCCC(CO)CCCCCCCC (stereo not shown) [Octyl dodecanol]
4 | 18.02 (MPa)^0.5 | CCCCC(CC)C(=O)OCC(COC(=O)C(CC)CCCC)OC(=O)C(CC)CCCC (stereo not shown) [Triethylhexanoin]
